In ChEMBL document CHEMBL2203160, “PPARγ agonist from Chromolaena odorata” (J Nat Prod, 2012):

Columns and labels:
PC-6 = assay: Cytotoxicity against human PC6 cells by MTT assay; type: functional, cell-based
[1] = Cytotoxicity against human U251SP cells by MTT assay; type: functional, cell-based

Work on COc1c(O)cc2c(c1OC)C(=O)c1ccc(C)cc1C2=O yielded an IC50 (PC-6) of 52.2 µM.
With COc1cc(O)c(C(=O)/C=C/c2ccc(O)cc2)c(OC)c1OC the IC50 [1] was 92.7 µM.
